In patent US20260317269A1, “Oxamate Derivatives and Prodrugs to Prevent CaOx Stone Formation” (Rutgers, The State University of New Jersey, priority 2023, published 2026):

Experiment: CaOx crystallization inhibition assay, remaining free oxalate in solution measured with EnzyChrom oxalate assay kit (Assay B)
Format: biochemical
Conditions: for pEC50 / Ratio: from EC50 in the CaOx crystallization inhibition assay; for pEC50: HEPES pH 6.8, r.t., footnote c not given; for pEC50 / EC50: 72 h; for EC50: inhibition of CaOx crystallization, 10 mM HEPES buffer, pH 6.8, 150 mM NaCl, supersaturated CaOx, r.t., remaining oxalate at OD 595 nm; for Ratio: ratio to citrate (citrate = 1)
Excerpt: Calcium oxalate (CaOx) crystallization inhibition assays in HEPES buffer, pH 6.8 include Assay A and Assay B. Assay A: Fluorescence-based assay using Quin-2 to measure the concentration of free calcium in solution (Ex 340 nm/Em 495 nm) (FIG. 1). An example assay protocol is shown below.
Assay B: Spectrophotometric assay using EnzyChrom™ oxalate assay kit from Bioassay Systems (EOXA-100) to measure the concentration of free oxalate in solution at OD 595 nm.
For CaOx crystallization inhibition assay, equal volumes of 2 mM of CaCl2) was combined with […] of Na2Ox to generate […] supersaturated solutions of CaOx in 10 mM HEPES buffer, pH 6.8 containing 150 mM NaCl. The higher concentration of Ca^++ utilized in this assay was designed to mimic the typical calcium levels found in human urine. Following incubation with varying concentrations of inhibitors at r.t. for 72 h and subsequent centrifugation, the EnzyChrom™ oxalate assay kit (EOXA-100, BioAssay Systems) was employed to measure spectrophotometrically the remaining oxalate concentration in solution at 595 nm. This assay determined the EC50 for each inhibitor. This assay was used to determine the activity of about 50 oxamate derivatives synthesized. Separately, dose response curves can be obtained for calcium concentrations and inhibitors concentrations with supersaturated solution: 250 μM CaCl2+250 μM Na2C2O4 in 10 mM HEPES, pH 6.8+150 mM NaCl; Calcium concentration in supernatent after centrifuge was measured using Quin2 via a fluorescence assay (Ex 340 nm/Em 495 nm).
Table 1 lists the EC50's obtained using this assay for various oxamate derivatives, along with other structure features such as linker length and number of OMA units for SAR analysis.

| SMILES | pEC50 | EC50 [µM] | Ratio |
| --- | --- | --- | --- |
| O=C(O)CC(O)(CC(=O)O)C(=O)O [Citrate, reference compound] | 3.18 | 665 | 1 |
| O=C(O)C(=O)NCCNC(=O)C(=O)O [Compound 11b] | 3.89 | 127 | 5 |

Stronger by EC50, values ahead:

| pEC50 | EC50 [µM] | SMILES | Ratio |
| --- | --- | --- | --- |
| 5.44 | 3.6 | O=C(O)C(=O)NCCCC[C@H](NC(=O)C(=O)O)C(=O)NCCCCCNC(=O)[C@H](CCCCNC(=O)C(=O)O)NC(=O)C(=O)O [Compound 19e, N,N′-(1,5-pentylene)bis(L-Lysinamide) N^α, N^α′,N^ε,N^ε′-tetraoxalate] | 185 |
| 4.20 | 63.8 | O=C(O)C(=O)NCCCC[C@H](NC(=O)C(=O)O)C(=O)O [Compound 9, L-Lysine N^α,N^ε-dioxalate] | 10 |
| 6.03 | 0.925 | O=C(O)C(=O)NCCCC[C@H](NC(=O)C(=O)O)C(=O)NCCCCCCNC(=O)[C@H](CCCCNC(=O)C(=O)O)NC(=O)C(=O)O [Compound 19f, N,N′-(1,6-hexylene)bis(L-Lysinamide) N^α, N^α′,N^ε,N^ε′-tetraoxalate] | 719 |
